The values that follow come from ChEMBL document CHEMBL1129992, “Arylamide inhibitors of HIV-1 integrase” (J Med Chem, 1997).

For test [1], the target named is T1, Human immunodeficiency virus type 1 integrase (Human immunodeficiency virus 1, UniProt Q7ZJM1). Nature of the test: Inhibition of HIV-1 integrase-mediated strand transfer.
Test [2] concerns the target T1, Human immunodeficiency virus type 1 integrase. Nature of the test: Inhibition of HIV-1 integrase-mediated 3'-processing.

T1 sequence (Q7ZJM1 whole entry): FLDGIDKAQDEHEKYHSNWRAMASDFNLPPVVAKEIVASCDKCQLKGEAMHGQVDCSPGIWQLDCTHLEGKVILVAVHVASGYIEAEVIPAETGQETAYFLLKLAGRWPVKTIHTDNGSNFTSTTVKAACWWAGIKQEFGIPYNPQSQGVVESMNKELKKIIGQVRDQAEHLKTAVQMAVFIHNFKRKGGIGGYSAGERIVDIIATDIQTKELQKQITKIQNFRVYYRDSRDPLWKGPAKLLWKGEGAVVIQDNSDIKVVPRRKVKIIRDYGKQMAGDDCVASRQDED

By IC50 is commonly meant the concentration that gives 50% inhibition. A higher IC50 goes with weaker potency. In the case of `O=C(NCCCNC(=O)c1ccc2cc(O)ccc2c1)c1ccc2cc(O)ccc2c1`, the IC50 in test [1] and in test [2] was over 200 µM each time. Regarding `O=C(CCc1cc(O)cc(O)c1)NCCCNC(=O)CCc1cc(O)cc(O)c1`, the IC50 in test [1] and in test [2] was over 200 µM each time. Regarding `O=C(CCc1cccc(O)c1)NCCc1ccc(O)cc1`, the IC50 in test [2] is over 350 µM. For the compound `COc1cc2ccc(C(=O)NCCCNC(=O)c3ccc4cc(OC)c(OC)cc4c3)cc2cc1OC`, the IC50 in test [1] and in test [2] was over 200 µM each time. Compound `O=C(CCc1cc(O)cc(O)c1)NCCc1ccc(O)c(O)c1` registered an IC50 in test [2] of over 350 µM.

As for `O=C(CCc1ccc(O)c(O)c1)NCCc1cc(O)cc(O)c1`, the IC50 in test [2] is over 350 µM. Turning to `O=C(O)c1ccc2c(O)c(O)ccc2c1`, the IC50 came out at 62.4 µM in test [1] and 53.3 µM in test [2]. In test [2], `O=C(CCc1ccc(O)cc1)NCCc1cccc(O)c1` displayed an IC50 of over 350 µM. Regarding `COc1ccc2cc(C(=O)NCCCNC(=O)c3ccc4cc(OC)ccc4c3)ccc2c1`, the IC50 in test [1] and in test [2] was over 200 µM throughout. `COc1ccc2cc(C(=O)NCCCNC(=O)c3ccc4c(OC)c(OC)ccc4c3)ccc2c1OC`: the IC50 in test [1] and in test [2] was over 200 µM in each case. Regarding `O=C(CCc1ccc(O)c(O)c1)NCCc1ccc(O)c(O)c1`, in test [2], the IC50 worked out at 33 µM. In the case of `O=C(NCCCNC(=O)c1ccc2cc(O)c(O)cc2c1)c1ccc2cc(O)c(O)cc2c1`, the results for the half-inhibitory concentration (IC50) in test [1] and in test [2] were 0.81 µM and 0.98 µM, respectively.

As for `COC(=O)c1ccc2cc(O)ccc2c1`, the IC50 in test [1] and in test [2] was over 200 µM in each case.

Consider `O=C(CCc1ccc(O)cc1)NCCc1ccc(O)cc1`, for which the IC50 in test [2] is over 350 µM. Consider `O=C(O)c1ccc2cc(O)c(O)cc2c1`, for which the IC50 in test [1] is 4.7 µM; in test [2], 5.4 µM. Take `O=C(CCc1cc(O)cc(O)c1)NCCc1cc(O)cc(O)c1`: the IC50 in test [2] was over 350 µM. Take `O=C(O)c1ccc2cc(O)ccc2c1`: the IC50 in test [1] and in test [2] was 172 µM in each case.

Regarding `O=C(CCc1cccc(O)c1)NCCCNC(=O)CCc1cccc(O)c1`, the IC50 in test [1] and in test [2] was over 200 µM throughout. In the case of `O=C(CCc1ccc(O)cc1)NCCCNC(=O)CCc1ccc(O)cc1`, the IC50 in test [1] and in test [2] was over 200 µM in each case. As for `COC(=O)c1ccc2cc(O)c(O)cc2c1`, the half-inhibitory concentration (IC50) in test [1] and in test [2] was over 200 µM each time. Turning to `COC(=O)c1ccc2c(O)c(O)ccc2c1`, the IC50 in test [1] is 52.7 µM; in test [2], 58.4 µM. Consider `O=C(NCCCNC(=O)c1ccc2c(O)c(O)ccc2c1)c1ccc2c(O)c(O)ccc2c1`, for which the IC50 amounted to 0.11 µM in test [1] and 0.23 µM in test [2].

`O=C(CCc1cccc(O)c1)NCCc1cccc(O)c1` yielded a concentration for half-maximal inhibition (IC50) in test [2] of over 350 µM.
